Data reported in patent US9744164B2, “Neuroprotective polyphenol analogs” (Salk Institute for Biological Studies, priority 2011, dated 2017).

How the values were obtained:
N9 microglial cells = assay: anti-inflammatory assay, LPS-induced microglial activation (NO release); type: cell-based, mouse; conditions: bacterial lipopolysaccharide, derivative 1-10 μM, 24 hr
Experimental: Anti-inflammatory assay. Mouse N9 microglial cells plated in DME with 7.5% DFCS were treated with 10 μg/ml bacterial lipopolysaccharide (Sigma) alone or in the presence of the Fisetin derivatives (1-10 μM) or Fisetin (10 μM) as a positive control. After 24 hr the medium was removed, spun briefly to remove floating cells and 100 μl assayed for NO using 100 μl of the Griess Reagent (Sigma) in a 96 well plate. After incubation for 10 min at room temperature the absorbance at 550 nm was read on a microplate reader.
Three secondary screens allowed assessment of three key activities of Fisetin that are highly relevant to stroke, as well as other neurological disorders: maintenance of glutathione (GSH), the major endogenous cellular antioxidant, inhibition of LPS-induced microglial activation, an indicator of anti-inflammatory activity and PC12 cell differentiation, a measure of neurotrophic activity. All of these activities are relevant to the nerve cell loss seen in stroke (Gelderblom, et al., Stroke. 2009, 40 (5), 1849-1857; Pandya, et al., Cent. Nerv. Syst. Agents. Med. Chem. (2011) Apr. 27; Lewerenz, et al., J. Neurochem. (2010) 113 (2), 502-504). […] To assess GSH maintenance, total intracellular GSH levels after a 24 hr treatment with the compound both in the absence and presence of glutamate, an inducer of GSH loss and oxidative stress (Tan, et al., Curr. Top. Med. Chem. (2001) 1, 497-506; Maher, et al., Free Radical Research. (2006) 40 (10), 1105-1111) was measured Inhibition of LPS-induced microglial activation was determined by treating N9 mouse microglial cells with LPS alone and in the presence of the compounds and assaying NO release into the medium 24 hr later (Zheng, et al., Int. Immunopharmacol. (2008) 8, (3), 484-494). PC12 cell differentiation was determined by treating PC12 cells with the compounds and looking at neurite outgrowth after 24 hr. In all cases, Fisetin was used as a positive control (Sagara, et al., J. Neurochem. (2004) 90, 1144-1155).
The roles of the four different hydroxyl groups in the activity of Fisetin were studied. […] Cell viability was determined after 24 hr by the MTT assay. The ability to maintain GSH (GSH) was determined by treating HT22 cells with different doses of each derivative (1-10 μM) in the presence of 5 mM glutamate. After 24 hr cell extracts were prepared and analyzed for total GSH. Fisetin (10 μM) was used as a positive control. The ability to induce PC12 cell differentiation (PC12 diff'n) was determined by treating PC12 cells in N2 medium with different doses of each derivative (1-10 μM) for 24 hr. Differentiation was assessed by visual inspection with Fisetin (10 μM) as a positive control. Anti-inflammatory activity (microglia) was assessed in N9 microglial cells treated with bacterial lipopolysaccharide alone or in the presence different doses of each derivative (1-10 μM) for 24 hr. Fisetin was used as a positive control. TEAC values, a measure of direct antioxidant activity, were determined using the ABTS+ decolorization assay.

HT22 cells = assay: in vitro ischemia assay (HT22 cell IAA assay); type: cell-based, mouse; conditions: for EC50 in vitro ischemia: HT22 cells, 20 μM IAA 2 hr, viability by MTT after 24 hr, 'no' = no protection; for improvement of neuroprotective activity/potency over Fisetin: relative to Fisetin, in vitro ischemia
Experimental: For these studies, cultured HT22 mouse hippocampal cells were used as an in vitro stroke assay. HT22 cells were treated with iodoacetic acid (IAA), an irreversible inhibitor of glyceraldehyde 3-phosphate dehydrogenase (G3PDH) for 2 hr alone or in the presence of varying concentrations of Fisetin. G3PDH is an enzyme of the glycolysis pathway, which catalyzes the synthesis of 1,3-bisphosphoglycerate, a “high energy” intermediate used for the synthesis of ATP. Cell survival was measured using a standard colorimetric MTT (3-(4,5-dimethylthiazol-2-yl)-2,5-diphenyltetrazolium bromide) assay for cell survival MTT is a pale yellow substrate that is cleaved by living cells to yield a dark blue formazan product.
Cytotoxicity assay. Cell viability was determined by a modified version of 3-(4,5-dimethylthiazol-2-yl)-2,5-diphenyl tetrazolium bromide (MTT) assay based on the standard procedure (Maher, et al., Brain Research. (2007), supra). Cells were seeded onto 96-well microtiter plates at a density of 5×10^3 cells per well. For the in vitro ischemia assay, the next day, the medium was replaced with DMEM supplemented with 7.5% DFCS and the cells were treated with 20 μM iodoacetic acid (IAA) alone or in the presence of the different derivatives. After 2 hr the medium in each well was aspirated and replaced with fresh medium without IAA but containing the derivatives. 20 hr later, the medium in each well was aspirated and replaced with fresh medium containing 2.5 μg/ml MTT. After 4 hr of incubation at 37° C., the cells were solubilized with 100 μl of a solution containing 50% dimethylformamide and 20% SDS (pH 4.7). The absorbance at 570 nm was measured on the following day with a microplate reader (Molecular Devices). Results were confirmed by visual inspection of the wells. Controls included compound alone to test for toxicity and compound with no cells to test for interference with the assay chemistry.
For a primary screen, an in vitro ischemia model in combination with the HT22 nerve cell line (Maher, et al., Brain Research. (2007) 1173, 117-125) was chosen. […] To induce ischemia in the HT22 cells we used iodoacetic acid (IAA), a well-known, irreversible inhibitor of the glycolytic enzyme glyceraldehyde 3-phosphate dehydrogenase (G3PDH) (Winkler, et al., Exp. Eye Res. (2003) 76, 715-723). IAA has been used in a number of other studies to induce ischemia in nerve cells (Reshef, et al., Neurosci. Lett. (1997) 238, 37-40; Sperling, et al., Neursci. Lett. (2003) 351, 137-140; Rego, et al., Neurochem. Res. (1999) 24, 351-358; Sigalov, et al,. J. Mol. Neurosci. (2000) 15, 147-154; and Reiner, et al., Neurosci. Lett. (1990) 119, 175-178), including several recent screens for neuroprotective molecules (Biraboneye, et al., J. Med. Chem. (2009) 52 (14), 4358-4369; Biraboneye, et al., Chem. Med. Chem. (2010) 5 (1), 79-85). The changes following IAA treatment of neural cells are very similar to those seen in animal models of ischemic stroke (Lipton, et al., Physiol. Rev. (1999) 79, 1431-1568) and include alterations in membrane potential (Reiner, et al., Neurosci. Lett. (1990) 119, 175-178), breakdown of phospholipids (Taylor, et al., J. Pharmacol. Exp. Ther. (1996) 276, 1224-1231), loss of ATP (Winkler, et al., Exp. Eye Res. (2003) 76, 715-723; Sperling, et al., Neursci. Lett. (2003) 351, 137-140) and an increase in reactive oxygen species (ROS) (Taylor, et al., J. Pharmacol. Exp. Ther. (1996), supra; and Sperling, et al., Neursci. Lett. (2003) 351, 137-140).
The roles of the four different hydroxyl groups in the activity of Fisetin were studied. […] Cell viability was determined after 24 hr by the MTT assay. The ability to maintain GSH (GSH) was determined by treating HT22 cells with different doses of each derivative (1-10 μM) in the presence of 5 mM glutamate. After 24 hr cell extracts were prepared and analyzed for total GSH. Fisetin (10 μM) was used as a positive control. […]

Row | Structure (SMILES) | microglia (anti-inflammatory activity) (N9 microglial cells) [%] | EC50 in vitro ischemia (HT22 cells) | further enhancement of neuroprotective activity (HT22 cells; benzene ring added to A ring, relative to CMS-04P) [fold] | improvement of neuroprotective activity/potency over Fisetin (HT22 cells) | enhancement of neuroprotective activity relative to CMS-027 (HT22 cells; relative to CMS-027) [fold]
1 | COc1cc(-c2ccc(N3CCCC3)cc2)nc2ccccc12 [CMS-110, 4-methoxy-2-(4-(pyrrolidin-1-yl)phenyl)quinoline] | 67 | no |  |  | 
2 | CCOc1ccc(-c2cc(OC)c3ccccc3n2)cc1OCC [CMS-004, 4-methoxy-2-(3,4-diethoxyphenyl)quinoline] | 76 | no |  |  | 
3 | COc1cc(-c2ccc(O)cc2)nc2ccccc12 [CMS-022, 4-methoxy-2-(4-hydroxyphenyl)quinoline] | 4 | no |  |  | 
4 | CCOc1ccc(/C=C/C(=O)c2cc(C)c(C)cc2O)cc1OCC [CMS-013, (E)-3-(3,4-diethoxyphenyl)-1-(2-hydroxy-4,5-dimethylphenyl)prop-2-en-1-one] | 56 | no |  |  | 
5 | CCOc1ccc(-c2cc(=O)c3cc(C)c(C)cc3o2)cc1OCC [CMS-018, 2-(3,4-diethoxyphenyl)-6,7-dimethyl-4H-chromen-4-one] | 2 | no |  |  | 
6 | CCOc1ccc(-c2cc(=O)c3ccc4ccccc4c3o2)cc1OCC [CMS-038, 2-(3,4-diethoxyphenyl)-4H-benzo[h]chromen-4-one] | 2 | no |  |  | 
7 | COc1ccc(-c2cc(OC)c3ccccc3n2)cc1O [CMS-001, 4-methoxy-2-(3-hydroxy,4-methoxyphenyl)quinoline] | 69 | no |  |  | 
8 | O=c1c(O)c(-c2ccc(O)c(O)c2)oc2c1ccc1ccccc12 [CMS-040, 2-(3,4-dihydroxyphenyl)-3-hydroxy-4H-benzo[h]chromen-4-one] | 91 |  | ~5.5 |  | 
9 | Cc1ccc2oc(-c3ccc(O)c(O)c3)c(O)c(=O)c2c1 [PM-010, 2-(3,4-dihydroxyphenyl)-3-hydroxy-6-methyl-4H-chromen-4-one] |  |  |  | 10-100 fold | 
10 | O=c1cc(-c2ccc(O)c(O)c2)oc2c1ccc1ccccc12 [CMS-02P, reference compound] | 55 |  |  | ~40 fold | 
11 | Cc1cc2oc(-c3ccc(O)c(O)c3)cc(=O)c2cc1C [CMS-028, 2-(3,4-dihydroxyphenyl)-6,7-dimethyl-4H-chromen-4-one] | 93 |  |  |  | 2
12 | O=c1cc(-c2ccc(O)c(O)c2)oc2ccc3ccccc3c12 [PM-003] |  |  |  | ~40 fold | 
13 | COc1cc(-c2ccc([N+](=O)[O-])c(O)c2)nc2ccccc12 [CMS-111, 4-methoxy-2-(3-hydroxy-4-nitrophenyl)quinoline] | 25 | no |  |  | 
14 | CCOc1ccc(/C=C/C(=O)c2ccc3ccccc3c2O)cc1OCC [CMS-032, (E)-3-(3,4-diethoxyphenyl)-1-(1-hydroxynaphthalen-2-yl)prop-2-en-1-one] | 5 | no |  |  | 
15 | O=c1cc(-c2ccc(O)c(O)c2)oc2ccccc12 [PM-001] |  |  |  | 6 fold | 
